These results are taken from patent publication US12065441B2, “Pyrazolopyrimidine derivative, use thereof and pharmaceutical composition” (GENGLE THERAPEUTICS, INC., priority 2018, dated 2024).

Read-outs that look alike come from different tables or passages of the source.

Data set [1] addresses JAK1 (Homo sapiens, UniProt P23458). As to the kind of experiment: Caliper Mobility Shift Assay, kinase enzyme activity, JAK1. In kind it is biochemical. The following applies: for inhibitory effect on kinase JAK1 (in words): JAK1, summary of Table 1; for IC50: JAK1, read-out: Kinase inhibitory activity (IC50, nM) JAK1. As to the method: (§1) The half-inhibition concentration IC50 of the compound (the concentration of the compound required to inhibit the enzyme activity to 50%) is measured by mixing the fixed enzyme with a specific substrate and different concentrations of the test compound. The measurement method used was Caliper Mobility Shift Assay, the kinases measured were JAK1, JAK2, JAK3 and TYK2, and the standard reference compound used was staurosporine.

In data set [2] the target is JAK2 (Homo sapiens, UniProt O60674). Nature of the data set: Caliper Mobility Shift Assay, kinase enzyme activity, JAK2. The data set is classed as biochemical. To be noted: for inhibitory effect on kinase JAK2 (in words): JAK2, summary of Table 1; for IC50: JAK2, read-out: Kinase inhibitory activity (IC50, nM) JAK2. As to the method: as §1
Data set [3] concerns the target T1, JAK3 (Homo sapiens, UniProt P52333).
T1 sequence (P52333 1-1124): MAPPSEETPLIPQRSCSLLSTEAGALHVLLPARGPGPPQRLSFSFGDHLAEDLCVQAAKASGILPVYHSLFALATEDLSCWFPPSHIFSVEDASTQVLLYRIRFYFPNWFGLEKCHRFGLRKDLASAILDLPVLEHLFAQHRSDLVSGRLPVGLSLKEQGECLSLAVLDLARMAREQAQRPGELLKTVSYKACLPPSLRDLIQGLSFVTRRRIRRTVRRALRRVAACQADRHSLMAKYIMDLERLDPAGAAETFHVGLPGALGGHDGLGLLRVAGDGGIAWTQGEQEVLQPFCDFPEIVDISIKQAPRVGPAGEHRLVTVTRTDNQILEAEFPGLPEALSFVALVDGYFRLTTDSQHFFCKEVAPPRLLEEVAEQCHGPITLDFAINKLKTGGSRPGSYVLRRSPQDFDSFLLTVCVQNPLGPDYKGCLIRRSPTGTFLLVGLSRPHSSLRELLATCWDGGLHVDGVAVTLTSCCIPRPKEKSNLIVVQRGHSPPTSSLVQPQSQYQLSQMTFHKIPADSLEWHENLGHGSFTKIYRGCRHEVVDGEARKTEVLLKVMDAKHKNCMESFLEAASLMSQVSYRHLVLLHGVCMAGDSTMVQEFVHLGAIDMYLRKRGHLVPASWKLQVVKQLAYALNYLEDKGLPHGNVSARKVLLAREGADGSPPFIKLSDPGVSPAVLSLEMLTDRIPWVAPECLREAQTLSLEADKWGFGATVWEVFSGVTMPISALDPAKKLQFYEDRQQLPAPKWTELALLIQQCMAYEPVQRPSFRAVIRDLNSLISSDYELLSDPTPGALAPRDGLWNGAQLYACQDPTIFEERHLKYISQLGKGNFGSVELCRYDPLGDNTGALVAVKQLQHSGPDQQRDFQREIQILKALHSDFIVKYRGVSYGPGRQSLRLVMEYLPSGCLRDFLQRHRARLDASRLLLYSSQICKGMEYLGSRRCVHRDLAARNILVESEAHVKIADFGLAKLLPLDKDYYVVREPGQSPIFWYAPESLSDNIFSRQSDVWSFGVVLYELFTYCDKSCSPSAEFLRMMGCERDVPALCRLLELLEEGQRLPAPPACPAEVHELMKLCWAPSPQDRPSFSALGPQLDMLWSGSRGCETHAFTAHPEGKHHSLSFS
Nature of the data set: Caliper Mobility Shift Assay, kinase enzyme activity, JAK3. In kind it is biochemical. To be noted: for inhibitory activity on JAK3 (in words): JAK3, summary of Table 1; for IC50: JAK3, read-out: Kinase inhibitory activity (IC50, nM) JAK3. On the procedure:
as §1

For data set [4], the target named is TYK2 (Homo sapiens, UniProt P29597). As to the kind of experiment: Caliper Mobility Shift Assay, kinase enzyme activity, TYK2. The data set is classed as biochemical. The following applies: for inhibitory activity on TYK2 (in words): TYK2, summary of Table 1; for IC50: TYK2, read-out: Kinase inhibitory activity (IC50, nM) TYK2. As to the method:
as §1

A short description of data set [5]: Pharmacokinetics experiment in mice (intravenous and oral). The data set is classed as in vivo. To be noted: for F: 10 mg/kg oral vs 2 mg/kg intravenous; for AUC(0-t) / MRT inf / clearance / half-life / Vd / Cmax / Tmax: both sexes, mouse, blood, single dose; for half-life: read-out: Terminal t1/2 (converted); for Vd: read-out: Vss. On the procedure: Experimental animals: mice, male and female, weight: 23-25 g;
Preparation of the test articles: The target compounds (Ig, Ii, and Ip) were prepared as 0.4 mg/mL (for intravenous administration) and 1.0 mg/mL (for oral administration), for later use. Administration route: oral administration/intravenous injection. Dosing volume and frequency: 5 mL/kg (intravenous injection) or 10 mL/kg (oral administration), single dose.
Sample collection: Blood was collected at the following time points, 5 min, 15 min, 30 min, 1 hr, 2 hr, 4 hr, 8 hr and 24 hr after administration.
Sample analysis: LC-MS/MS method was used to detect the collected samples. The instrument model used was Triple Quad 6500+.
Pharmacokinetic data analysis: WinNolin was used to fit and calculate the obtained blood drug concentration data according to the non-compartmental model method, and partial results are summarized in Table 2.

Sequence of JAK2 (O60674 whole entry): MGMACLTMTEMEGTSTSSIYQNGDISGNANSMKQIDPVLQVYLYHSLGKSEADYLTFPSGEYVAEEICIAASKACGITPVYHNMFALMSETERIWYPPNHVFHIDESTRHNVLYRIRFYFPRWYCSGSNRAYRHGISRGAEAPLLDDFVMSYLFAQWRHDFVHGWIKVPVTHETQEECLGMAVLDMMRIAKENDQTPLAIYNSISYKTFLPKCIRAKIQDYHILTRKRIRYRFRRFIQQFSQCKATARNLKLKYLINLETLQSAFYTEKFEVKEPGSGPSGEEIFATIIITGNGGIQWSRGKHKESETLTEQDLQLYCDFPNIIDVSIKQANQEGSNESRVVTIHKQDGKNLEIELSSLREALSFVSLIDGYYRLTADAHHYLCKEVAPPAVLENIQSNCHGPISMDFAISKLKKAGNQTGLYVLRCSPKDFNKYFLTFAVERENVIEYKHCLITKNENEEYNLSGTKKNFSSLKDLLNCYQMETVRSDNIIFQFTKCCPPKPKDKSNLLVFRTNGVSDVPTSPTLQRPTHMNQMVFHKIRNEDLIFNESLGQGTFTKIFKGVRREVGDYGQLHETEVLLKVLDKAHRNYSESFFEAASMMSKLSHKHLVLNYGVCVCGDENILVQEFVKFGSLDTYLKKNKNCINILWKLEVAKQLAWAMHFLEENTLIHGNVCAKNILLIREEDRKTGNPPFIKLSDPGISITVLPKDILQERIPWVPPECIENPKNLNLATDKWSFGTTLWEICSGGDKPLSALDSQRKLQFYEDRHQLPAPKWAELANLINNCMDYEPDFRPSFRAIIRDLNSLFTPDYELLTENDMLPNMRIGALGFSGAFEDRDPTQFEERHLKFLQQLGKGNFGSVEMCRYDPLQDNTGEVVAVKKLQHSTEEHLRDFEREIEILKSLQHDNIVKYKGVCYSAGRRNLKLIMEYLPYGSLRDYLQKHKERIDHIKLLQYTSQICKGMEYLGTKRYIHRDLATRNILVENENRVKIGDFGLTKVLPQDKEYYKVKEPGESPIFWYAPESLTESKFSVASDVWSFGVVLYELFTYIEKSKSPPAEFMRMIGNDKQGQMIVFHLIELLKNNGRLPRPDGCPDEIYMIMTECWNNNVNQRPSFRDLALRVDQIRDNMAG
Sequence of TYK2 (P29597 whole entry): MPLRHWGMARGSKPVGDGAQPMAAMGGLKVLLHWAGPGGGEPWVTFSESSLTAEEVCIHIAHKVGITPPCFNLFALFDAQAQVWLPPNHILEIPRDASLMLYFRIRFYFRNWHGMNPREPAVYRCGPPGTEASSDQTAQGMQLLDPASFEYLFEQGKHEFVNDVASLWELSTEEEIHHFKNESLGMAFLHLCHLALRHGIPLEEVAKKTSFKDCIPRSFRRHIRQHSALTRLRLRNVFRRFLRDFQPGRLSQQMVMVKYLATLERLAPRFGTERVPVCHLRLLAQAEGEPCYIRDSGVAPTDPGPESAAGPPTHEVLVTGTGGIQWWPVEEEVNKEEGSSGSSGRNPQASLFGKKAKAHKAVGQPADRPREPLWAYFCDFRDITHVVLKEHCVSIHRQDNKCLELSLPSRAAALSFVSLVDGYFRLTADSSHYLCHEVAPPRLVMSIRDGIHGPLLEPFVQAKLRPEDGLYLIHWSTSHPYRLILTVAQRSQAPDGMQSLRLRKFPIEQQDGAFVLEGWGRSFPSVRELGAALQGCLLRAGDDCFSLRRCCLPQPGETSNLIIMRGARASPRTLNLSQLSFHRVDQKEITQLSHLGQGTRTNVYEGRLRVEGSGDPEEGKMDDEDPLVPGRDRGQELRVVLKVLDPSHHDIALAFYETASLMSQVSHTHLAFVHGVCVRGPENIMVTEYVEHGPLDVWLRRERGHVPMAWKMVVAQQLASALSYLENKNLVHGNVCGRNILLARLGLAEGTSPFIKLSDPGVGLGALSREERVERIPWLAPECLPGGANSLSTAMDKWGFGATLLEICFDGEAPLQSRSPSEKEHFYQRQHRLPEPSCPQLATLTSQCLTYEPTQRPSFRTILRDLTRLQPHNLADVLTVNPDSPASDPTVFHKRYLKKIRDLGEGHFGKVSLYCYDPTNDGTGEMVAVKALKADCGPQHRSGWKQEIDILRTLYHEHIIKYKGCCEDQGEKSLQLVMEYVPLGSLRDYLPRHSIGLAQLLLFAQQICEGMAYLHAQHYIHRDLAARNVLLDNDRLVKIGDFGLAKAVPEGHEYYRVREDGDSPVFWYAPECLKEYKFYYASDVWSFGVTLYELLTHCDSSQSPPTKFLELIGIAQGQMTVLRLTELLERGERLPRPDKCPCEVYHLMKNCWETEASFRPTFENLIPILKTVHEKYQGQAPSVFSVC
Sequence of JAK1 (P23458 whole entry): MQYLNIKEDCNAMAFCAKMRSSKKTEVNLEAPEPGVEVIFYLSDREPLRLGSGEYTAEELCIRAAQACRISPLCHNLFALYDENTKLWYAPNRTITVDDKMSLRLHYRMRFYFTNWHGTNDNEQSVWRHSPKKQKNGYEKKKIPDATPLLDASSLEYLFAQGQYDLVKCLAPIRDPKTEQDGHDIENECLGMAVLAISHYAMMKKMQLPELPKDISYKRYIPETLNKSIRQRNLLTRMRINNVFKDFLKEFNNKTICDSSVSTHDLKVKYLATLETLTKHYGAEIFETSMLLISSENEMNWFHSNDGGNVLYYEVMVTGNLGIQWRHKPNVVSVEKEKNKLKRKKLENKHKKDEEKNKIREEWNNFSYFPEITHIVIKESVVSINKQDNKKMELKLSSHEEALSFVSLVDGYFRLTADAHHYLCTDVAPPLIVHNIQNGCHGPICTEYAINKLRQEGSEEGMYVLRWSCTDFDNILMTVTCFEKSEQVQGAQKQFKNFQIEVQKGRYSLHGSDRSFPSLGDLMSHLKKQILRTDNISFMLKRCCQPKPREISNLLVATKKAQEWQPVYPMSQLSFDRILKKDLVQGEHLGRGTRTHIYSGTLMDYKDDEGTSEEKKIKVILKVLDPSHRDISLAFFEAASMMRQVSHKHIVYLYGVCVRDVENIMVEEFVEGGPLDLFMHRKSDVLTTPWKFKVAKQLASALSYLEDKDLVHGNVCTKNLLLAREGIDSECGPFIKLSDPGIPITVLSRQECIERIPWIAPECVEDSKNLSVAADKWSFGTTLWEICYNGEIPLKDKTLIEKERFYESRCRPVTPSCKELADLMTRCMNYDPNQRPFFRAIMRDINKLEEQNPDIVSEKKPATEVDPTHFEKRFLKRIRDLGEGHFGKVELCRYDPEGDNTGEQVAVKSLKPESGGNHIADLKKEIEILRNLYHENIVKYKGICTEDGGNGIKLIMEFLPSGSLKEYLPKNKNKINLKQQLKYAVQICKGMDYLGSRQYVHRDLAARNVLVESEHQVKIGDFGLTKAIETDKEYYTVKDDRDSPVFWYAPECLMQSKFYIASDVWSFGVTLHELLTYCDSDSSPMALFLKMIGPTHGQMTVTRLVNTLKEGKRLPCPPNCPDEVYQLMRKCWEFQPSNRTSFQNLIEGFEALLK

With `CCS(=O)(=O)N1CCC(N2CC(CC#N)(n3cc(-c4ncnc5[nH]ncc45)cn3)C2)CC1` [Compound Ig], in data set [1], the “inhibitory effect on kinase JAK1 (in words)” value was “strong inhibitory effect” and the IC50 (as a rule, the point on the concentration scale where inhibition reaches its midpoint) came to 58 nM. In data set [2], the “inhibitory effect on kinase JAK2 (in words)” value was “strong inhibitory effect” and the IC50 is 47 nM. In data set [3], the “inhibitory activity on JAK3 (in words)” value is listed as “weak inhibitory activity” and the IC50 came to 2060 nM. Further, in data set [4], the “inhibitory activity on TYK2 (in words)” value was “weak inhibitory activity” and the IC50 worked out at 1230 nM. The compound also gave a F in data set [5] of 51.7%. Further, in data set [5] (2 mg/kg, intravenous injection), the AUC(0-t) (commonly the area under the concentration-time curve up to a stated or last time point) is 883 ng·h/mL; the MRT inf (as a rule, a mean duration of stay, worked out from the concentration-time curve) came to 26.8 min; the clearance is 37.5 mL/min/kg; the half-life is 23.4 min. Moreover, the Vd in data set [5] (2 mg/kg, intravenous injection) amounted to 0.997 L/kg. For the same compound, in data set [5] (10 mg/kg, oral administration), the AUC(0-t) was found to be 2290 ng·h/mL, the peak level (Cmax) was 1310 ng/mL, the Tmax (usually the time from dosing to the highest level) is 22.5 min and the half-life is 70.8 min.
Take `N#CCC1(n2cc(-c3ncnc4[nH]ncc34)cn2)CN(C2CCN(C(=O)c3ccnc(C(F)(F)F)c3F)CC2)C1` [Compound Ii]: in data set [1], the “inhibitory effect on kinase JAK1 (in words)” value is “strong inhibitory effect” and the IC50 is 39 nM. In data set [2], the “inhibitory effect on kinase JAK2 (in words)” value is reported as “strong inhibitory effect” and the IC50 stood at 126 nM. Besides, in data set [3], the “inhibitory activity on JAK3 (in words)” value was “weak inhibitory activity” and the IC50 came out at 3770 nM. In addition, in data set [4], the “inhibitory activity on TYK2 (in words)” value was “weak inhibitory activity” and the IC50 came to 2660 nM. The same compound displayed a F in data set [5] of 37.9%. In data set [5] (2 mg/kg, intravenous injection), the AUC(0-t) came to 900 ng·h/mL, the MRT inf turned out to be 35.8 min, the clearance was 37.3 mL/min/kg and the half-life is 50 min. In data set [5] (2 mg/kg, intravenous injection), the Vd worked out at 1.32 L/kg. In addition, in data set [5] (10 mg/kg, oral administration), the AUC(0-t) was 1710 ng·h/mL, the Cmax (usually the highest concentration seen after dosing) was found to be 904 ng/mL, the Tmax is 60 min and the half-life was 59.2 min.
Consider `CCS(=O)(=O)N1CC(CC#N)(n2cc(-c3ncnc4[nH]ncc34)cn2)C1` [Compound Ip], for which, in data set [2], the “inhibitory effect on kinase JAK2 (in words)” value is on record as “strong inhibitory effect” and the IC50 came out at 12 nM. Moreover, in data set [3], the “inhibitory activity on JAK3 (in words)” value is listed as “weak inhibitory activity” and the 50% inhibitory concentration (IC50) turned out to be 423 nM. Besides, in data set [4], the “inhibitory activity on TYK2 (in words)” value is “weak inhibitory activity” and the IC50 amounted to 209 nM. The F in data set [5] is given as 99.4%. In addition, in data set [5] (2 mg/kg, intravenous injection), the exposure AUC(0-t) came to 1200 ng·h/mL, the MRT inf amounted to 63.6 min, the clearance is 27.3 mL/min/kg and the half-life was 83.4 min. Further, the Vd in data set [5] (2 mg/kg, intravenous injection) stood at 1.74 L/kg. In addition, in data set [5] (10 mg/kg, oral administration), the AUC(0-t) is 5950 ng·h/mL, the Cmax was determined as 3380 ng/mL, the Tmax came out at 15 min and the half-life was 84 min.
